Measurements from ChEMBL document CHEMBL1121780, “Synthesis and antiarrhythmic activity of new benzofuran derivatives” (J Med Chem, 1981).
Active and inactive are the calls of the source. The rule behind the calls is not given here.

What was measured:
[1] = species on record: Canis familiaris; test: Activity against ouabain-induced ventricular arrhythmia was measured as percent of sinus rhythm recovery; Inactive; type: functional, organism-based; conditions: Canis lupus familiaris; Cardiac ventricle
[2] = Toxicity estimated in mouse as LD50 by intravenous administration; type: organism-based; conditions: in vivo
[3] = species on record: Canis familiaris; test: Duration for the sinus rhythm recovery was measured; type: functional, Canis lupus familiaris
[4] = species on record: Canis familiaris; test: Duration for the antiarrhythmic activity was measured; type: functional, Canis lupus familiaris, Heart
[5] = tested on: Canis familiaris; test: Activity against harris coronary ligation induced ventricular arrhythmia was measured as percent of initial sinus complexes after dose 2 mg/kg iv; type: functional, Canis lupus familiaris, Cardiac ventricle
[6] = tested on: Canis familiaris; test: Activity against ouabain-induced ventricular arrhythmia was measured as percent of sinus rhythm recovery at dose of 1 mg/kg iv; type: functional, Canis lupus familiaris, Cardiac ventricle
[7] = tested on: Canis familiaris; test: Activity against harris coronary ligation induced ventricular arrhythmia was measured as percent of final sinus complexes after dose 2 mg/kg iv; type: functional, Canis lupus familiaris, Cardiac ventricle
[8] = species on record: Canis familiaris; test: Activity against ouabain-induced ventricular arrhythmia was measured as percent of sinus rhythm recovery; Estimated as too toxic to be tested; type: functional, organism-based; conditions: Canis lupus familiaris; Cardiac ventricle
[9] = tested on: Canis familiaris; test: Activity against ouabain-induced ventricular arrhythmia was measured as percent of sinus rhythm recovery at dose of 4 mg/kg iv; type: functional, Canis lupus familiaris, Cardiac ventricle
[10] = tested on: Canis familiaris; test: Activity against ouabain-induced ventricular arrhythmia was measured as percent of sinus rhythm recovery at dose of 2 mg/kg iv; type: functional, Canis lupus familiaris, Cardiac ventricle
[11] = tested on: Canis familiaris; test: Activity against harris coronary ligation induced ventricular arrhythmia was measured as percent of initial sinus complexes after dose 2 mg/kg, iv; Inactive; type: functional, organism-based; set-up: dose 2 mg/kg; conditions: Canis lupus familiaris; Cardiac ventricle; at 2 mg/kg
[12] = tested on: Canis familiaris; test: Activity against harris coronary ligation induced ventricular arrhythmia was measured as percent of final sinus complexes after dose 2 mg/kg, iv; type: functional, Canis lupus familiaris, Cardiac ventricle
[13] = tested on: Canis familiaris; test: Activity against harris coronary ligation induced ventricular arrhythmia was measured as percent of initial sinus complexes after dose 12.5 mg/kg, po; type: functional, Canis lupus familiaris, Cardiac ventricle
[14] = tested on: Canis familiaris; test: Activity against harris coronary ligation induced ventricular arrhythmia was measured as percent of final sinus complexes after dose 12.5 mg/kg, po; type: functional, Canis lupus familiaris, Cardiac ventricle
[15] = tested on: Canis familiaris; test: Activity against harris coronary ligation induced ventricular arrhythmia was measured as percent of initial sinus complexes after dose 1 mg/kg iv; Inactive; type: organism-based, Canis lupus familiaris, Cardiac ventricle; set-up: dose 1 mg/kg; conditions: dog, in vivo
[16] = tested on: Canis familiaris; test: Activity against harris coronary ligation induced ventricular arrhythmia was measured as percent of initial sinus complexes after dose 4 mg/kg iv; Inactive; type: functional, organism-based; set-up: dose 4 mg/kg; conditions: Canis lupus familiaris; Cardiac ventricle; at 4 mg/kg
[17] = tested on: Canis familiaris; test: Activity against harris coronary ligation induced ventricular arrhythmia was measured as percent of initial sinus complexes after dose 5 mg/kg, iv; type: functional, Canis lupus familiaris, Cardiac ventricle
[18] = tested on: Canis familiaris; test: Activity against harris coronary ligation induced ventricular arrhythmia was measured as percent of final sinus complexes after dose 5 mg/kg, iv; type: functional, Canis lupus familiaris, Cardiac ventricle

| Structure (SMILES) | SRR [1] | LD50 [2] | Duration [3] | other results |
| --- | --- | --- | --- | --- |
| COc1c(NC(=O)NC(C)C)c(OCCN2CCCCC2)c(OC)c2occc12 | inactive | 25 mg/kg | – | – |
| COc1c(NC(C)=O)c(OCCN2CCCCCCC2)c(OC)c2occc12 | – | 21 mg/kg | >50 min | Duration [4]: <30 min; ISC [5]: 5%; SRR [6]: 100%; FSC [7]: 17% |
| CNC(=O)Nc1c(OCCCCN2CCCC2)c(OC)c2occc2c1OC | inactive | 36 mg/kg | – | – |
| CNC(=O)Nc1c(OC)c(OC)c2occc2c1OCCN1CCCCC1 | inactive | 200 mg/kg | – | – |
| COc1c(NC(C)=O)c(OCCN(C)C)c(OC)c2occc12 | inactive | 138 mg/kg | – | – |
| COC(=O)Nc1c(OCCN2CCCCC2)c(OC)c2occc2c1OC | inactive | 15 mg/kg | – | – |
| CNC(=O)Nc1c(OC)ccc(OC)c1OCCN1CCCCC1 | inactive | 135 mg/kg | – | – |
| CNCCOc1c(NC(=O)NC)c(OC)c2ccoc2c1OC | inactive | 67 mg/kg | – | – |
| COc1c(NC(=O)C2CCCCC2)c(OCCN2CCCCC2)c(OC)c2occc12 | – | 7 mg/kg | – | SRR [8]: Estimated as too toxic to be tested |
| CNC(=O)Nc1c(OCCCCN2CCCCC2)c(OC)c2occc2c1OC | – | 68 mg/kg | <30 min | SRR [9]: 100% |
| CNS(=O)(=O)Nc1c(OCCN2CCCCC2)c(OC)c2occc2c1OC | inactive | 39 mg/kg | – | – |
| COc1c(NC(=O)c2ccccc2)c(OCCN2CCCCC2)c(OC)c2occc12 | – | 2.5 mg/kg | – | SRR [8]: Estimated as too toxic to be tested |
| CCNC(=O)Nc1c(OCCN2CCCCC2)c(OC)c2occc2c1OC | – | 28 mg/kg | 120 min | Duration [4]: <30 min; ISC [5]: 25%; SRR [10]: 100%; FSC [7]: 90% |
| COc1c(NC(C)=O)c(OCCNC2CCCCC2)c(OC)c2occc12 | – | 11.5 mg/kg | <30 min | SRR [6]: 50% |
| CCOC(=O)Nc1c(OCCN2CCCCC2)c(OC)c2occc2c1OC | inactive | 13 mg/kg | – | – |
| COc1c(NC=O)c(OCCN2CCCCC2)c(OC)c2occc12 | – | 46 mg/kg | 10 min | SRR [9]: 100% |
| CCN(CC)CCCOc1c(NC(=O)NC)c(OC)c2ccoc2c1OC | – | 76 mg/kg | 15 min | SRR [10]: 100% |
| CNCCOc1c(NC(C)=O)c(OC)c2ccoc2c1OC | inactive | 96 mg/kg | – | – |
| CNC(=O)Nc1c(OCCCN2CCCCC2)c(OC)c2occc2c1OC | – | 42.5 mg/kg | >100 min | ISC [11]: inactive; SRR [10]: 100% |
| CCOc1c(NC(=O)NC)c(OCCN2CCCCC2)c(OC)c2occc12 | – | 10 mg/kg | – | SRR [8]: inactive |
| COc1c(NC(=O)NC2CCCCC2)c(OCCN2CCCCC2)c(OC)c2occc12 | inactive | 42 mg/kg | – | – |
| COc1c(NC(C)=O)c(OCCN2CCCC2)c(OC)c2occc12 | – | 80 mg/kg | <30 min | SRR [9]: 33% |
| CNC(=O)Nc1c(OC(C)CN2CCCCC2)c(OC)c2occc2c1OC (stereo not given) | – | 23 mg/kg | 15 min | SRR [6]: 100% |
| CCN(CC)CCOc1c(NC(C)=O)c(OC)c2ccoc2c1OC | inactive | 85 mg/kg | – | – |
| CCCCNC(=O)Nc1c(OCCN2CCCCC2)c(OC)c2occc2c1OC | inactive | 22 mg/kg | – | – |
| CNC(=O)Nc1c(OCC(C)N2CCCCC2)c(OC)c2occc2c1OC (stereo not given) | – | 36 mg/kg | 60 min | SRR [10]: 100% |

| Structure (SMILES) | SRR [1] | LD50 [2] | Duration [3] | other results |
| --- | --- | --- | --- | --- |
| COc1c(NC(C)=O)c(OCCCN2CCCCC2)c(OC)c2occc12 | inactive | 40.5 mg/kg | – | – |
| CNC(=O)N(C)c1c(OCCN2CCCCC2)c(OC)c2occc2c1OC | – | 66 mg/kg | <10 min | SRR [10]: 100% |
| CN/C(S)=N/c1c(OCCN2CCCCC2)c(OC)c2occc2c1OC | inactive | 17 mg/kg | – | – |
| COc1c(NC(=O)C(C)C)c(OCCN2CCCCC2)c(OC)c2occc12 | inactive | 78 mg/kg | – | – |
| COc1c(N)c(OCCN2CCCCC2)c(OC)c2occc12 | inactive | 21 mg/kg | – | – |
| COc1c(NC(N)=O)c(OCCN2CCCCC2)c(OC)c2occc12 | inactive | 40 mg/kg | – | – |
| CNC(=O)Nc1c(OCCN2CCCCC2)c(OC)c2occc2c1OC(C)C | inactive | 11 mg/kg | – | – |
| COc1c(NC(=O)NC(C)(C)C)c(OCCN2CCCCC2)c(OC)c2occc12 | inactive | 11.5 mg/kg | – | – |
| CNC(=O)Nc1c(OCCN2CCCCCC2)c(OC)c2occc2c1OC | – | 31 mg/kg | 95 min | FSC [12]: 78%; ISC [13]: 5%; FSC [14]: 90%; ISC [5]: 3%; SRR [10]: 100% |
| CNC(=O)Nc1c(OCCN2CCCCCCC2)c(OC)c2occc2c1OC | – | 14 mg/kg | 30 min | ISC [11]: inactive; SRR [10]: 100% |
| CNC(=O)Nc1c(OCCN2CCOCC2)c(OC)c2occc2c1OC | inactive | 100 mg/kg | – | – |
| COc1c(NC(=O)OC2CCCCC2)c(OCCN2CCCCC2)c(OC)c2occc12 | inactive | 15 mg/kg | – | – |
| COc1c(NC(=O)N(C)C)c(OCCN2CCCCC2)c(OC)c2occc12 | – | 25 mg/kg | 60 min | SRR [9]: 50%; Duration [4]: 40 min; ISC [5]: 22%; FSC [7]: 52% |
| CNC(=O)Nc1c(OCCCN(C)C)c(OC)c2occc2c1OC | inactive | 44 mg/kg | – | – |
| COc1c(NC(C)=O)c(OCCN2CCCCCC2)c(OC)c2occc12 | inactive | 33 mg/kg | – | – |
| CNC(=O)Nc1c(OCCNC2CCCCC2)c(OC)c2occc2c1OC | – | 9.5 mg/kg | 120 min | ISC [15]: Not Active; SRR [6]: 100% |
| CCN(CC)CCOc1c(NC(=O)NC)c(OC)c2ccoc2c1OC | – | 74 mg/kg | >120 min | ISC [16]: inactive; SRR [10]: 100% |
| COc1c(NC(C)=O)c(OCCN2CCOCC2)c(OC)c2occc12 | inactive | 200 mg/kg | – | – |
| CNC(=O)Nc1cc2ccoc2cc1OCCN1CCCCC1 | inactive | 67 mg/kg | – | – |
| CCCNC(=O)Nc1c(OCCN2CCCCC2)c(OC)c2occc2c1OC | inactive | 18.5 mg/kg | – | – |
| COc1c(NC(=O)Nc2ccccc2)c(OCCN2CCCCC2)c(OC)c2occc12 | inactive | 9 mg/kg | – | – |
| COc1c(NC(=O)C(F)(F)F)c(OCCN2CCCCC2)c(OC)c2occc12 | inactive | 22 mg/kg | – | – |
| CNC(=O)Nc1c(OCCNC(C)C)c(OC)c2occc2c1OC | – | 49 mg/kg | <30 min | SRR [9]: 100% |
| CNC(=O)Nc1c(OCCCN2CCCC2)c(OC)c2occc2c1OC | – | 32 mg/kg | >60 min | ISC [17]: 0%; FSC [18]: 9%; SRR [9]: 100%; Duration [4]: 20 min |
| CCNCCOc1c(NC(C)=O)c(OC)c2ccoc2c1OC | inactive | 68 mg/kg | – | – |
